The target in series [1] is T1, Gil1 (Citrobacter gillenii) (UniProt A4KCT8).
T1 sequence (whole entry): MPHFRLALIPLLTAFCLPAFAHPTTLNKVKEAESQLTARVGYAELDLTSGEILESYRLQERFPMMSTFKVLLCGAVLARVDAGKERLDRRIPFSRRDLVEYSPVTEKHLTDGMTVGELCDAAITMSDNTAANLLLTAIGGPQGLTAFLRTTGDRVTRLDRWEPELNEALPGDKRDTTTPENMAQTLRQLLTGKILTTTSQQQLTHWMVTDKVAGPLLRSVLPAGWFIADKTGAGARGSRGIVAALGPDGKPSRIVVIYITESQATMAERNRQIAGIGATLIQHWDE
Description: Ratio of kcat to Km of Citrobacter gillenii CIP 106783 Beta-lactamase GIL1 expressed in Escherichia coli DH10B relative to benzyl-penicillin. On the set-up: unit not given here.

Series [2] has as its system Citrobacter gillenii. The experiment in a line: Antimicrobial activity against Citrobacter gillenii CIP 106783 after 18 hrs by […]. Format: functional. The following applies: CIP 106783, 18 h. (In agar diffusion tests the substance spreads into inoculated agar from a disc or well.)
In series [3] the test system is Escherichia coli. Description: Antimicrobial activity against Escherichia coli DH10B expressing GIL1 after 18 hrs by […]. It counts as functional.
Series [4] concerns Escherichia coli. The experiment in a line: Antimicrobial activity against Escherichia coli DH10B after 18 hrs by […]. It counts as functional.
Substrate in series [5]: CC1(C)S[C@@H]2[C@H](NC(=O)[C@H](N)c3ccc(O)cc3)C(=O)N2[C@H]1C(=O)O
The experiment in a line: (§1) Activity of Citrobacter gillenii CIP 106783 Beta-lactamase GIL1 expressed in Escherichia coli DH10B.

Substrate in series [6]: C[C@H]1[C@H](NC(=O)/C(=N\OC(C)(C)C(=O)O)c2csc(N)n2)C(=O)N1S(=O)(=O)O
The description is as §1.

Substrate in series [7]: CO/N=C(\C(=O)N[C@@H]1C(=O)N2C(C(=O)O)=C(COC(C)=O)CS[C@H]12)c1csc(N)n1
The description is as §1.

Substrate in series [8]: CC(=O)OCC1=C(C(=O)O)N2C(=O)[C@@H](NC(=O)Cc3cccs3)[C@H]2SC1
The series is described as §1.

Substrate in series [9]: CCN1CCN(C(=O)N[C@@H](C(=O)N[C@@H]2C(=O)N3[C@@H]2SC(C)(C)[C@@H]3C(=O)O)c2ccccc2)C(=O)C1=O
The series is described as §1.

Substrate in series [10]: CO/N=C(\C(=O)N[C@@H]1C(=O)N2C(C(=O)[O-])=C(C[N+]3(C)CCCC3)CS[C@H]12)c1csc(N)n1
The description is as §1.

Substrate in series [11]: CC(C)(O/N=C(\C(=O)N[C@@H]1C(=O)N2C(C(=O)[O-])=C(C[n+]3ccccc3)CS[C@H]12)c1csc(N)n1)C(=O)O
The series is described as §1.

Substrate in series [12]: C[C@@H](O)[C@H]1C(=O)N2C(C(=O)O)=C(SCCNC=N)C[C@H]12
Described as §1.

Substrate in series [13]: CC1(C)S[C@@H]2[C@H](NC(=O)Cc3ccccc3)C(=O)N2[C@H]1C(=O)O
The description is as §1.

Substrate in series [14]: CO/N=C(\C(=O)N[C@@H]1C(=O)N2C(C(=O)O)=C(COC(N)=O)CS[C@H]12)c1ccco1
The series is described as §1.

Substrate in series [15]: CO/N=C(\C(=O)N[C@@H]1C(=O)N2C(C(=O)[O-])=C(C[n+]3cccc4c3CCC4)CS[C@H]12)c1csc(N)n1
The series is described as §1.

Substrate in series [16]: CC1(C)S[C@@H]2[C@H](NC(=O)[C@H](C(=O)O)c3ccsc3)C(=O)N2[C@H]1C(=O)O
Described as §1.

This is an account of results in ChEMBL document CHEMBL1147095, “Chromosome-encoded narrow-spectrum Ambler class A beta-lactamase GIL-1 from Citrobacter gillenii” (Antimicrob Agents Chemother, 2007).

In brackets after ≈: the same amount, converted by molar mass. Where only a bound is given, the exact number is not on record here.

In general, MIC refers to the lowest concentration found to suppress growth. By Km is commonly meant the concentration of substrate that gives half-maximal velocity. For orientation: kcat means the number of substrate molecules converted per active site and unit of time at saturation. The kcat/Km is the turnover number divided by the Michaelis constant.

As to `CC1(C)S[C@@H]2[C@H](NC(=O)Cc3ccccc3)C(=O)N2[C@H]1C(=O)O`, in series [1], the Ratio was 100.

For `C[C@@H](O)[C@H]1C(=O)N2C(C(=O)O)=C(SCCNC=N)C[C@H]12` [IMIPENEM ANHYDROUS], in series [2], the MIC came to 0.06 mg/L (≈ 0.2 µM). The Ratio in series [1] is less than 0.01.

Turning to `C[C@H]1[C@H](NC(=O)/C(=N\OC(C)(C)C(=O)O)c2csc(N)n2)C(=O)N1S(=O)(=O)O` [AZTREONAM], the MIC in series [3] was found to be 0.12 mg/L (≈ 0.276 µM); in series [2], 0.06 mg/L (≈ 0.138 µM). Also, the Ratio in series [1] was found to be 0.02.

As to `CC1(C)S[C@@H]2[C@H](NC(=O)[C@H](N)c3ccc(O)cc3)C(=O)N2[C@H]1C(=O)O` [AMOXICILLIN], the MIC in series [3] is more than 512 mg/L; in series [2] it was 16 mg/L (≈ 43.8 µM); in series [4], 2 mg/L (≈ 5.47 µM). Further, in [1], the Ratio was found to be 81.

`CO/N=C(\C(=O)N[C@@H]1C(=O)N2C(C(=O)[O-])=C(C[N+]3(C)CCCC3)CS[C@H]12)c1csc(N)n1`: the MIC in [3] was determined as 0.12 mg/L (≈ 0.25 µM); in series [2], 0.06 mg/L (≈ 0.125 µM). Also, the Ratio in [1] came out at 0.5.

Regarding `CO/N=C(\C(=O)N[C@@H]1C(=O)N2C(C(=O)[O-])=C(C[n+]3cccc4c3CCC4)CS[C@H]12)c1csc(N)n1` [CEFPIROME], the values for the MIC in [3], in series [2] and in series [4] were 0.25 mg/L (≈ 0.486 µM), 0.06 mg/L (≈ 0.117 µM) and 0.06 mg/L (≈ 0.117 µM), respectively. Also, the Ratio in series [1] turned out to be 1.9.

For the molecule `CC1(C)S[C@@H]2[C@H](NC(=O)[C@H](C(=O)O)c3ccsc3)C(=O)N2[C@H]1C(=O)O` [TICARCILLIN], the MIC in series [3] was more than 512 mg/L; in series [2], 64 mg/L (≈ 166 µM); in series [4] it was 1 mg/L (≈ 2.6 µM). Also, in series [1], the Ratio is 180.

Regarding `CO[C@@]1(NC(=O)Cc2cccs2)C(=O)N2C(C(=O)O)=C(COC(N)=O)CS[C@@H]21` [CEFOXITIN], the MIC in [3] was determined as 2 mg/L (≈ 4.68 µM); in series [2], 1 mg/L (≈ 2.34 µM); in series [4], 2 mg/L (≈ 4.68 µM).

In the case of `CO/N=C(\C(=O)N[C@@H]1C(=O)N2C(C(=O)O)=C(COC(N)=O)CS[C@H]12)c1ccco1` [CEFUROXIME], the MIC was found to be 8 mg/L (≈ 18.9 µM) in [3], 2 mg/L (≈ 4.71 µM) in series [2] and 2 mg/L (≈ 4.71 µM) in series [4]. Moreover, in series [1], the Ratio came out at 0.4.

As to `CC(C)(O/N=C(\C(=O)N[C@@H]1C(=O)N2C(C(=O)[O-])=C(C[n+]3ccccc3)CS[C@H]12)c1csc(N)n1)C(=O)O` [CEFTAZIDIME], the minimal inhibitory concentration (MIC) in series [3] was determined as 0.5 mg/L (≈ 0.915 µM); in series [2] it was 0.06 mg/L (≈ 0.11 µM); in series [4], 0.06 mg/L (≈ 0.11 µM). In addition, the Ratio in series [1] turned out to be 0.01.

`CCN1CCN(C(=O)N[C@@H](C(=O)N[C@@H]2C(=O)N3[C@@H]2SC(C)(C)[C@@H]3C(=O)O)c2ccccc2)C(=O)C1=O` [PIPERACILLIN]: the results for the MIC in series [3], in series [2] and in [4] were 32 mg/L (≈ 61.8 µM), 2 mg/L (≈ 3.86 µM) and 1 mg/L (≈ 1.93 µM), respectively. In addition, the Ratio in series [1] was 61.

As to `CO/N=C(\C(=O)N[C@@H]1C(=O)N2C(C(=O)O)=C(COC(C)=O)CS[C@H]12)c1csc(N)n1` [CEFOTAXIME], the MIC was found to be 1 mg/L (≈ 2.2 µM) in [3], 0.06 mg/L (≈ 0.132 µM) in series [2] and 0.06 mg/L (≈ 0.132 µM) in series [4]. Besides, the Ratio in series [1] is 0.2.

On to `CO[C@@]1(NC(=O)C(C(=O)O)c2ccc(O)cc2)C(=O)N2C(C(=O)O)=C(CSc3nnnn3C)CO[C@@H]21` (stereo partly specified) [MOXALACTAM], for which the figures for the MIC in [3], in series [2] and in series [4] were 0.25 mg/L (≈ 0.48 µM), 0.12 mg/L (≈ 0.231 µM) and 0.12 mg/L (≈ 0.231 µM), respectively.

As to `CC(=O)OCC1=C(C(=O)O)N2C(=O)[C@@H](NC(=O)Cc3cccs3)[C@H]2SC1` [CEPHALOTHIN], the MIC in series [3] is 8 mg/L (≈ 20.2 µM); in series [2], 2 mg/L (≈ 5.04 µM); in [4], 2 mg/L (≈ 5.04 µM). Also, the Ratio in [1] came to 11.

As for `CO/N=C(\C(=O)N[C@@H]1C(=O)N2C(C(=O)O)=C(CSc3nc(=O)c(O)nn3C)CS[C@H]12)c1csc(N)n1` [CEFTRIAXONE], the MIC in series [3], in series [2] and in series [4] was 0.06 mg/L (≈ 0.108 µM) each time.

B1: Gil1 (Citrobacter gillenii), A4KCT8 (protein)
chain: T1 sequence (whole entry)
Take B1: the Km in series [5] came to 84 µM; in series [6], 938 µM; in series [7] it was 714 µM; in [8] it was 62 µM; in series [9], 90 µM; in [10] it was 2680 µM. Moreover, the Km came out at 1750 µM in [11]; 2980 µM in series [12]; 51 µM in series [13]; 88 µM in series [14]; 304 µM in series [15]; 10 µM in series [16]. The kcat in series [5] came out at 381 s⁻¹; in series [6] it was 0.8 s⁻¹; in series [7] it was 7 s⁻¹; in [8] it was 37 s⁻¹; in series [9], 306 s⁻¹; in series [10] it was 77 s⁻¹. Further, the kcat in [11] was 1 s⁻¹; in series [12], 0.2 s⁻¹; in series [13] it was 286 s⁻¹; in [14], 2 s⁻¹; in series [15], 32 s⁻¹; in [16] it was 100 s⁻¹. Also, the kcat/Km in series [5] stood at 4.54e+06 M⁻¹ s⁻¹; in series [6] it was 1000 M⁻¹ s⁻¹; in series [7] it was 10000 M⁻¹ s⁻¹; in series [8], 598000 M⁻¹ s⁻¹; in series [9] it was 3.4e+06 M⁻¹ s⁻¹; in series [10] it was 29000 M⁻¹ s⁻¹. Besides, the kcat/Km in series [11] is 600 M⁻¹ s⁻¹; in [12], 500 M⁻¹ s⁻¹; in series [13], 5.6e+06 M⁻¹ s⁻¹; in series [14], 23000 M⁻¹ s⁻¹; in series [15], 106000 M⁻¹ s⁻¹; in [16], 1e+07 M⁻¹ s⁻¹.
